Measured values as given in the NIST ThermoML archive (doi:10.1016/j.tca.2012.08.001).
± gives the expanded uncertainty stated by the source.

How the values were obtained:
[1] = 298.2 K; 101.33 kPa; Liquid; Vibrating tube method
[2] = refractive index (Na D-line) (dimensionless); settings: 298.2 K; 101.33 kPa; Liquid; Standard Abbe refractometry

mass density [1] | refractive index [2] | Compound
826.8 ± 0.36 kg/m3 | 1.4344 ± 0.2 | CCCCCCCCCCO [decan-1-ol]
1219.32 ± 0.61 kg/m3 | 1.3713 ± 0.2 | O=CO [formic acid]
– | 1.3324 ± 0.2 | O [water]
